From patent US8263642B2, “Antimicrobial compounds and methods of use thereof” (Vanderbilt University, priority 2008, dated 2012)

What was measured:
[1] = test system: HssRS-dependent hrtAB expression; test: Luminescence-based assay to monitor HssRS-dependent hrtAB expression (phrtABlux reporter), Newman; assay type: cell-based, Staphylococcus aureus; settings: Newman; for activation at 0.0825 µM: Staphylococcus aureus, NEWMAN, read-out: % Lumi, luminescence induced by the compound compared to the heme control (82.5 nM) in the same plate; for Luminescence: raw luminescence value obtained in a luminometer
In short: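 S. aureus Newman wild type or ΔhssR carrying a hrtAB promoter–luxCDABE reporter (phrtABlux), grown in TSB with 10 μg/ml chloramphenicol at 37 °C. Light output read against 82.5 nM heme as the in-plate positive control. Activity given as % of heme-induced luminescence.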

[2] = test system: hrtAB-driven expression of the xylE reporter gene; test: XylE reporter assay (hrtAB promoter-xylE), Newman; assay type: cell-based, Staphylococcus aureus; settings: for XylE (0.05): level of XylE induction at 0.05 uM of the compound; for XylE (0.5): level of XylE induction at 0.5 uM of the compound; for XylE (5.0): level of XylE induction at 5.0 uM of the compound; for XylE (50.0): level of XylE induction at 50.0 uM of the compound
In short: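 S. aureus carrying hrtAB promoter-xylE fusion in pOS1 grown O/N at 37° C in TSB with chloramphenicol, lysed with lysostaphin. Lysate XylE activity read as 2-hydroxymuconic semialdehyde formation from 0.2 mM pyrocatechol (A375, every minute for 30 minutes), normalised to BCA protein; unit = 1 nmol/min/mg at 30° C.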

response regulator HssR [3] = test: HssR dependence of XylE inducing activity, Newman; assay type: cell-based, Staphylococcus aureus; settings: whether XylE inducing activity requires HssR
Procedure: With reference to Table 1, “Luminescence” refers to the raw luminescence value obtained in a luminomter. “Control (82.5 nm)” refers to the luminescence value obtained from heme at 82.5 nM as a positive control in the same plate as the experimental. “% lum” is the percentage of luminescence induced by the compound as compared to the heme control in the same plate. […] All of these assays are described in the application. […] “N/T” indicates the test was not performed. […]
S. aureus strains harboring the appropriate reporter construct were inoculated into 500 μl of TSB containing 10 μg/ml chloramphenicol in 1.5 ml tubes. Cultures were grown O/N at 37° C. with shaking. Bacteria were pelleted by centrifugation and spent medium was aspirated. The pellet was washed once with 500 μl of 20 mM potassium phosphate, pH 7.6, and resuspended in 150 μl of 100 mM potassium phosphate buffer, pH 8.0, 10% (v/v) acetone, 25 μg/ml lysostaphin. After 20 minute incubation at 37° C. and 5 minute incubation on ice, samples were centrifuged at 20,000 g for 30 minutes at 4° C. 1-10 μl of supernatant was added to a 96-well plate and 200 μl of 100 mM potassium phosphate, pH 8.0, 0.2 mM pyrocatechol was added to each well. Formation of 2-hydroxymuconic semialdehyde was tracked by measuring the absorbance at 375 nm every minute for 30 minutes on a Varian MP 50 microplate reader. Protein concentration in samples was determined by BCA (Pierce). One unit of specific activity of XylE in a sample is defined as the formation of 1 nmol of 2-hydroxymuconic semialdehyde per minute per milligram of cellular protein at 30° C. (Chien, Y., Manna, A. C., Projan, S. J., and Cheung, A. L. 1999, “SarA, a global regulator of virulence determinants in Staphylococcus aureus, binds to a conserved motif essential for sar-dependent gene regulation. J. Biol. Chem. 274, 37169-37176).

Stern = test: Heme adaptation, Stern test; assay type: cell-based
Procedure: (§1) Methods for obtaining the data shown in Tables 1 and 2 are described herein.
(§2) With reference to Table 1, “Luminescence” refers to the raw luminescence value obtained in a luminomter. “Control (82.5 nm)” refers to the luminescence value obtained from heme at 82.5 nM as a positive control in the same plate as the experimental. “% lum” is the percentage of luminescence induced by the compound as compared to the heme control in the same plate. […] All of these assays are described in the application. […] “N/T” indicates the test was not performed.

response regulator HssR [4] = test: HssR dependence, Stern test; assay type: cell-based
Procedure: as §1, §2

Structure (SMILES)	activation at 0.0825 µM [1]	Luminescence [1]	XylE (0.05) [2]	XylE (0.5) [2]	XylE (5.0) [2]	XylE (50.0) [2]	HssR Dep (response regulator HssR [3])	Heme Adapt (Stern)	HssR Dep (response regulator HssR [4])
CC1=NN(c2ccccc2)C(=O)/C1=N\Nc1ccccc1O	60.3%	1848	0.07	0.05	0.2	1	−		
CCOC(=O)c1c(NC(=O)c2ccccc2)sc(C(C)=O)c1-c1ccccc1	109%	312	0.03	1	0.3	0.08	−		
O=C(Nc1ccc(NC(=O)c2cccs2)c(Cl)c1)c1cccs1	111%	406	0.05	0.05	0.9	0.06	−		
O=C(Nc1ccc(/N=N/c2ccccc2)cc1)c1cccnc1		3086	0	1	1	0.7			
C/C(=N/NC(=O)c1cccc(I)c1)c1ccccc1O		5542	1	0.03	0.04	0.3			
Brc1ccc(-c2nc(NCc3ccccc3)c3ccccc3n2)cc1		4302	1	1	0.5	0.2	−		
COc1ccc(CCNC(=O)C(=O)Nc2cccc(Cl)c2)cc1OC	355%	2830	1	0.5	0.8	5	−		
O=c1c2ccccc2nc(/C=C\c2ccccc2Cl)n1-c1ccccc1O		6843	0.08	1	50	1	+		
O=C(O)C1CSC(c2cccnc2)=N1 (stereo not drawn)		2360	1	1	1	3	−		
Cc1ccc(-c2nnc(SCC(=O)NC3CCCC3)nc2-c2ccc(C)cc2)cc1	855%	1658		1	0.5	0.04	−		
c1ccc(-c2ccc(CSc3nc4ccccc4[nH]3)cc2)cc1		1822		0.03	0.08	11	+		
CC(C)CSc1nnc(-c2ccccc2)c(-c2ccccc2)n1	383%	1706		0.04	0.07	1	+		
COC(NC(=O)Nc1nc2ccccc2s1)(C(F)(F)F)C(F)(F)F	280%	1747		4	0.04	7	−		
CC(C)(C)c1cc2c(c(C(C)(C)C)c1)OC(c1cc([N+](=O)[O-])ccc1O)N2 (stereo not drawn)		1805		0.04	0	0.04			
Cc1c(NC(=O)c2ccc(Cl)c([N+](=O)[O-])c2)cccc1-c1nc2ccccc2o1		1912		0.06	0.1	0.5			
CCc1ccc2oc(-c3ccc(NC(=O)c4ccccc4OC)cc3)nc2c1		2392		0.05	2	3			

Structure (SMILES)	activation at 0.0825 µM [1]	Luminescence [1]	XylE (0.05) [2]	XylE (0.5) [2]	XylE (5.0) [2]	XylE (50.0) [2]	HssR Dep (response regulator HssR [3])	Heme Adapt (Stern)	HssR Dep (response regulator HssR [4])
FC(F)(F)c1cccc(Nc2nc(-c3cccnc3)nc3ccccc23)c1		1616		0.02	0.05	0.02			
COc1ccc(C2CC(C3C(=O)c4ccccc4C3=O)=NN2)cc1 (stereo not drawn)		1888		0.08	5	0.09			
Cc1ccc(CSCc2ccc(C(=O)NCc3ccc(F)cc3)o2)cc1	198%	1653		0	3	5	+		
Cc1nc(Nc2ccc(Oc3ccccc3)cc2)c2c(C)c(C)sc2n1		1627		0.6	0.09	0	−		
O=C(NC(=S)Nc1ccc(-c2nc3ccccc3s2)cc1)c1ccccc1[N+](=O)[O-] [drawing 23]	374%	1794	0.09	0.07	0.08	0.2			
COc1ccc(Br)cc1C(=O)NC(=S)Nc1cc(C)c(C)cc1O [drawing 24]	227%	946	0.07	0.3	0.09	0.3			
Cc1cccc(C(=O)Nc2ccc(-c3nc4ccccc4o3)cc2)c1 [drawing 27]	294%	837	0.07	0.09	0.08	0.2			
CCCN1C(=O)/C(=C2/C(=O)N(CC(=O)Nc3ccc(Cl)cc3)c3ccccc32)SC1=S [drawing 28]		1600	1	0.06	0.07	0.02	−		
Cc1ccc(O)c(NC(=O)c2nn3c(c2Br)NC(c2ccco2)CC3C(F)(F)F)c1 (stereo not drawn) [drawing 60]		1949	0.07	0.7	11	1			
O=C(NC(=S)Nc1ccc(-c2nc3ccccc3s2)cc1)c1ccccc1[N+](=O)[O-] [drawing 61]		1794	0.1	0.7	0.8	0.8			
Oc1c(-c2cc(-c3ccco3)[nH]n2)ccc2ccccc12 [drawing 131]								−	−
CC(NC(=O)C1(c2ccccc2)CCCC1)C1COc2ccccc2O1 (stereo not drawn) [drawing 132]								+	+
O=C(N/N=C/c1ccc(-c2ccc(Br)cc2)o1)C1COc2ccccc2O1 (stereo not drawn) [drawing 133]								+	+
O=C(N/N=C/c1ccc(-c2cccc(C(F)(F)F)c2)o1)C1COc2ccccc2O1 (stereo not drawn) [drawing 134]								−	−
Cc1ccc(NS(=O)(=O)c2ccc3c(c2)Cc2cc(S(=O)(=O)Nc4ccc(C)cc4)ccc2-3)cc1 [drawing 135]								+	+
COc1ccccc1NC1=C/C(=N\S(=O)(=O)c2ccc(Br)cc2)c2ccccc2C1=O [drawing 136]								+	+
